Marks after values point to notes of the source that are not given here.
How the values were obtained:
[1] = Example 1: performance of broiler chickens on dietary sinapic acid (gain, feed intake, gain/feed); assay type: in vivo; details: 0-18 d of age
From the text: Bird management. Broilers were housed in battery brooders.

[2] = Example 1: apparent nutrient digestibility (AME, ileal and fecal protein); assay type: in vivo, broiler chickens; details: for AME (apparent metabolizable energy): excreta 16-18 d
Description: (§1) Sample Analyses. Acid insoluble ash (AIA, Celite) was used as an indigestible marker for the determination of the apparent digestibility of metabolizable energy, protein (ileal and fecal) and SA. AIA was determined by using the procedure of Vogtmann et al, 1975 Br. Poult. Sci. 67:641-646. The gross energy was measured by a traditional bomb calorimeter, and crude protein was analyzed by a Leco FP-528™ protein analyzer (Model No. 601-500-100, Serial#3211, LECO Corporation, 3000 Lakeview Avenue, St. Joseph Mich. 49085-2396 USA). Based on the assay of nutrient and AIA in feed, excreta, and ileal content, the nutrient digestibility was determined.

[3] = Example 1: apparent sinapic acid digestibility (HPLC of feed, excreta, digesta); assay type: in vivo, broiler chickens; details: dietary sinapic acid 0.025-0.10%
Description: as §1
The analysis of sinapic acid in feed, excreta and digesta samples was conducted by HPLC using a reversed-phase column under the fluorescence detection method. The mobile phase was isocratic, based on 6% MeOH solution with 20 mmol K2HPO4 as basic buffer. For feed and excreta samples, the analysis was conducted at pH 9.5, however, for ileal and cecal samples, the pH was changed to 9 to obtain better background separation and chromatograms.

[4] = tested on: bacterial populations in the ileum and ceca; assay: Example 2: volatile fatty acid content of ileal and cecal digesta (0.05-0.20% sinapic acid); assay type: in vivo, broiler chickens; details: sinapic acid 0.05-0.20% in diet
Description: Bird management and diet composition were as described in Example 1. Volatile Fatty Acid (VFA) Measurement. The status of bacterial populations in the ileum and ceca of experimental birds was assessed by examining VFA production. The birds were killed by lethal injection with T-61TM(Euthanasia solution) and the ileal and cecal digesta of three birds within each replication were collected in a well-sealed plastic centrifuge tube and then frozen at -20° C. Ileal digesta were collected from the terminal ileum (distal half excluding the last 2 cm anterior from the ceca). Samples within a replication were pooled and mixed well prior to VFA measurement. Analyses of VFA (acetic, propionic, isobutyric, butyric, isovaleric, and valeric acid) were conducted by Gas Chromatography (GC) (Varian Star 3400) using a StabilwaxTM-DA column (0.25 mm ID, 0.25 μm […] Corporation, 110 Benner Circle, Bellefonte Pa., 16823-8812 USA) and based on the procedure of Choct et al. (Br. Poult. […] A concentration of 2 mmol/L is acceptable for the internal standard in intestinal content samples. One ml of standard solution was added to 0.2 (cecal) or 0.5 (ileal) g of sample and vortexed until well-mixed. The mixture was then centrifuged at 28,000 g for 10 minutes and the supernatant pipetted into GC vials for analysis. Statistical Analyses. […]

[5] = tested on: cecal microbial community; assay: Example 3: microbial community assay, % G+C profile of cecal digesta; assay type: in vivo, broiler chickens; details: dose dependent, sinapic acid 0.025-0.10% in diet
[6] = Example 3: feed consumption, weight gain and diet AME; assay type: in vivo, broiler chickens; details: sinapic acid 0.025% in diet
Description: Broiler chickens were fed a corn-soybean meal based diet either unsupplemented or supplemented with sinapic acid at a level of 0.025%, 0.05% or 0.1%. After the supplementation period, microbial analysis was conducted. This Example was designed to confirm the results of Example 2, to assess effects on microbial community, and to repeat the VFA measurement by increasing the chick numbers within the replication.
Ninety-six ([…]) male broiler chicks (Peterson X Hubbard) were randomly assigned to four treatments, with six birds in each replication and four replications for each treatment. A corn-soybean based diet served as a control, while another three diets were supplemented with graded levels of sinapic acid (0.025, 0.05 and 0.10%). Bird management was as previously described in Example 1. Volatile fatty acid measurement was conducted as described in Example 2, except that digesta was pooled from six birds per replication.

In the case of COc1cc(C=CC(=O)O)cc(OC)c1O [Sinapic Acid, 4-hydroxy-3,5dimethyoxy-cinnamic acid], the Feed intake/bird ([1]; sinapic acid 0.025% in diet) is reported as 781^a g, the Gain ([1]; sinapic acid 0.025% in diet) is reported as 561 g and the Gain/feed ([1]; sinapic acid 0.025% in diet) is reported as 0.72. The Feed intake/bird ([1]; sinapic acid 0.05% in diet) was 738^ab g, the Gain ([1]; sinapic acid 0.05% in diet) was 545 g and the Gain/feed ([1]; sinapic acid 0.05% in diet) was 0.74. The Feed intake/bird ([1]; sinapic acid 0.10% in diet) was 689^b g, the Gain ([1]; sinapic acid 0.10% in diet) was 491 g and the Gain/feed ([1]; sinapic acid 0.10% in diet) was 0.71. For the same compound, the Fecal protein digest. ([2]; sinapic acid 0.025% in diet) was 68.5%, the Ileal protein digest. ([2]; sinapic acid 0.025% in diet) was 81.5% and the “AME (apparent metabolizable energy)” value ([2]; sinapic acid 0.025% in diet) was 3412 kcal/kg. For the same compound, the Fecal protein digest. ([2]; sinapic acid 0.05% in diet) was 66.3%, the Ileal protein digest. ([2]; sinapic acid 0.05% in diet) was 78.8% and the “AME (apparent metabolizable energy)” value ([2]; sinapic acid 0.05% in diet) was 3418 kcal/kg. For the same compound, the Fecal protein digest. ([2]; sinapic acid 0.10% in diet) was 66.5%, the Ileal protein digest. ([2]; sinapic acid 0.10% in diet) was 80% and the “AME (apparent metabolizable energy)” value ([2]; sinapic acid 0.10% in diet) was 3442 kcal/kg. For the same compound, the “sinapic acid in the cecal digesta” value [3] was “no sinapic acid found”, the “reduction of acetic acid level in cecal contents compared with control” value [4] was 15-20% and the “reduction of total VFA level in cecal contents compared with control” value [4] was 15-20%. The “amounts of cecal microbes in the range % G+C 40-54” value [5] was “decreased”, the “relative abundance of cecal bacteria in the range % G+C 20-30” value [5] was “increased” and the “relative abundance of cecal bacteria in the range % G+C 55-69” value [5] was “increased”. For the same compound, the feed consumption [6] was “increased”, the “increase in diet AME” value [6] was 2% and the “increase in weight gain” value [6] was 6%.

Source: patent US20080113003A1, “Sinapic Acid Supplementation” (UNIVERSITY OF SASKATCHEWAN, priority 2004, published 2008)
